Assay results taken from patent US20240109914A1, “IMIDAZOTHIAZOLE COMPOUNDS AND ANALOGS THEREOF AND METHODS FOR TREATING NEMATODE INFECTIONS IN PLANTS” (The Governing Council of The University of Toronto, priority 2021, published 2024).
Read-outs that look alike come from different tables or passages of the source.

What was measured:
[1] = tested on: M. hapla eggs; assay: Meloidogyne hapla in vitro egg hatch assay; type: in vivo; conditions: 45 μM; for Number of Hatched Eggs: 8 days at room temperature, about 90 eggs per well, tested once; for Number of Hatched Eggs z-score: 8 days, z-score vs 8 untreated DMSO wells
Method: The M. hapla were originally obtained from a soil sample of muck soil from Ste-Clotilde, Quebec, Canada. Using tweezers, egg masses were carefully removed from root material from infested carrot roots. Eggs were liberated from the egg masses using a mild sodium hypochlorite bleaching protocol, whereby egg masses were bleached with a 10% commercial bleach (sodium hypochlorite) solution for 4 minutes with vigorous shaking, and then washed 5 times with deionized water. 50 μL of deionized water was added to each well of two 96-well polystyrene culture plates, and 0.5 μL of chemical (or DMSO alone) was added to each well. Approximately 90 eggs were added to each well in 49.5 ul of deionized water. The plates were sealed with parafilm and incubated for 8 days at room temperature without shaking in a Tupperware box filled with wet paper towels. After the 8-day incubation, the number of hatched eggs was counted for each treatment and for the untreated controls. Each chemical treatment was tested only once. 8 separate untreated DMSO controls were included in the experiment. The z-score for each treatment was calculated using the mean and standard deviation of the untreated DMSO control wells.

[2] = tested on: M. incognita J2 larvae; assay: Meloidogyne incognita in vitro larval mobility assay; type: in vivo; conditions: for Replicate 1 z-score / Replicate 2 z-score: z-score vs untreated DMSO wells; for pest or weed control at 45 µM: Meloidogyne incognita, 96 h
Method: M. incognita (Kofoid & White) Chitwood Race 1 (originally isolated in Maryland) was used for all experiments, and was maintained on pepper (Capsicum annuum L.) cv. PA-136 in a greenhouse as previously described^44. Infective J2 juveniles were collected as described in ref. 45. The microwell dose-response experiments were carried out similarly to previously described protocols^44,46. In brief, 50 μL of deionized water was added to the wells of 96-well polystyrene plates and 0.5 μL of test compound (or DMSO alone) was added to each well. Approximately 35 J2s were then added to each well in 49.5 μL of deionized water. The chemicals were tested at 45 μM, and the final concentration of DMSO in each well was 0.5% (v/v). DMSO alone was added to 3 separate wells. The plates were covered with plastic adhesive strips, and the lids of the plates were sealed with parafilm. The plates were incubated at 25° C. without shaking for 4 days. The percent of worms that were immobile (% immobile) was quantified by counting the number of immobile worms after 4 days of incubation, dividing the number of immobile worms by the total number of worms in the well, and then multiplying by 100. Two replicates were performed for each treatment. The z-score for each treatment was calculated using the mean and standard deviation of the untreated DMSO control wells. The average % immobile value was calculated across the two replicates. A test compound was considered most promising if the z-score was greater than 1.645 in both replicates.

[3] = 45 μM, 4 days, average of the two replicates, read-out: Average % Immobile
[4] = 45 μM, 4 days, replicate 1, read-out: Replicate 1 % Immobile
[5] = 45 μM, 4 days, replicate 2, read-out: Replicate 2 % Immobile

O=C(O)c1cn2cc(-c3ccccc3)nc2s1 [I-94]
Number of Hatched Eggs [1]: 4
Number of Hatched Eggs z-score [1]: [3.31]

COc1ccc(-c2nc3scc(C)n3c2C=O)cc1 [I-135]
Number of Hatched Eggs [1]: 4
Number of Hatched Eggs z-score [1]: [3.31]

Cc1nn2cc(-c3ccc(Cl)cc3)nc2s1 [I-158]
Replicate 1 z-score ([2]; 45 μM, 4 days, replicate 1): [3.12]
Replicate 2 z-score ([2]; 45 μM, 4 days, replicate 2): [8.51]
pest or weed control at 45 µM [2, 3]: 47.4%
pest or weed control at 45 µM [2, 4]: 37.9%
pest or weed control at 45 µM [2, 5]: 56.8%

O=Cc1c(-c2ccccc2)nc2sccn12 [I-122]
Number of Hatched Eggs [1]: 1
Number of Hatched Eggs z-score [1]: [4.30]
Replicate 1 z-score ([2]; 45 μM, 4 days, replicate 1): [14.96]
Replicate 2 z-score ([2]; 45 μM, 4 days, replicate 2): [12.31]
pest or weed control at 45 µM [2, 3]: ≥ 75%
pest or weed control at 45 µM [2, 4]: 95.9%
pest or weed control at 45 µM [2, 5]: 77.8%

c1ccc2cc(-c3cn4ccsc4n3)ccc2c1 [I-101]
Number of Hatched Eggs [1]: 2
Number of Hatched Eggs z-score [1]: [3.97]

Brc1ccc(-c2cn3c(n2)SCC3)cc1 [I-48]
Number of Hatched Eggs [1]: 0
Number of Hatched Eggs ([1]; listed as 1-48): completely inhibited egg hatching
Number of Hatched Eggs z-score [1]: [4.63]
Replicate 1 z-score ([2]; 45 μM, 4 days, replicate 1): [15.80]
Replicate 2 z-score ([2]; 45 μM, 4 days, replicate 2): [5.11]
pest or weed control at 45 µM [2, 3]: 69%
pest or weed control at 45 µM [2, 4]: 100%
pest or weed control at 45 µM [2, 5]: 38%

Fc1ccccc1-c1cn2ccsc2n1 [I-89]
Number of Hatched Eggs [1]: 3
Number of Hatched Eggs z-score [1]: [3.64]
Replicate 1 z-score ([2]; 45 μM, 4 days, replicate 1): [10.62]
Replicate 2 z-score ([2]; 45 μM, 4 days, replicate 2): [12.27]
pest or weed control at 45 µM [2, 3]: ≥ 75%
pest or weed control at 45 µM [2, 4]: 74.7%
pest or weed control at 45 µM [2, 5]: 77.6%

CNC(=O)O/N=C(\SC)C(=O)N(C)C [Oxamyl, oxamyl, reference compound]
Number of Hatched Eggs [1]: 9
Number of Hatched Eggs z-score [1]: [1.65]
Replicate 1 z-score ([2]; 45 μM, 4 days, replicate 1): [9.35]
Replicate 2 z-score ([2]; 45 μM, 4 days, replicate 2): [13.88]
pest or weed control at 45 µM ([2]; read-out: Average % Immobile): 66.9%
pest or weed control at 45 µM ([2]; read-out: Replicate 1 % Immobile): 67.2%
pest or weed control at 45 µM ([2]; read-out: Replicate 2 % Immobile): 66.7%

Cc1ccc(-c2nc3sccn3c2C=O)cc1 [I-152]
Replicate 1 z-score ([2]; 45 μM, 4 days, replicate 1): [15.80]
Replicate 2 z-score ([2]; 45 μM, 4 days, replicate 2): [14.75]
pest or weed control at 45 µM [2, 4]: 100%
pest or weed control at 45 µM [2, 5]: 91.3%

COCc1nn2cc(-c3ccc(Cl)cc3)nc2s1 [I-144]
Number of Hatched Eggs [1]: 4
Number of Hatched Eggs z-score [1]: [3.31]
Replicate 1 z-score ([2]; 45 μM, 4 days, replicate 1): [4.17]
Replicate 2 z-score ([2]; 45 μM, 4 days, replicate 2): [6.85]
pest or weed control at 45 µM [2, 3]: 45.4%
pest or weed control at 45 µM [2, 4]: 43.1%
pest or weed control at 45 µM [2, 5]: 47.6%

Nc1c(-c2ccccc2)nc2sccn12 [I-128]
Replicate 1 z-score ([2]; 45 μM, 4 days, replicate 1): [11.92]
Replicate 2 z-score ([2]; 45 μM, 4 days, replicate 2): [13.69]
pest or weed control at 45 µM [2, 3]: ≥ 75%
pest or weed control at 45 µM [2, 4]: 81%
pest or weed control at 45 µM [2, 5]: 85.5%

Cc1cn2cc(-c3ccc(OC(F)(F)F)cc3)nc2s1 [I-53]
Replicate 1 z-score ([2]; 45 μM, 4 days, replicate 1): [3.33]
Replicate 2 z-score ([2]; 45 μM, 4 days, replicate 2): [6.79]
pest or weed control at 45 µM [2, 3]: 43.1%
pest or weed control at 45 µM [2, 4]: 39%
pest or weed control at 45 µM [2, 5]: 47.3%

COCc1nn2cc(-c3ccc(C)c(C)c3)nc2s1 [I-109]
Number of Hatched Eggs [1]: 4
Number of Hatched Eggs z-score [1]: [3.31]

COCc1nn2cc(-c3cccc(OC)c3)nc2s1 [I-108]
Number of Hatched Eggs [1]: 4
Number of Hatched Eggs z-score [1]: [3.31]

Cc1sc2nc(-c3ccc(Cl)s3)cn2c1C [I-86]
Number of Hatched Eggs [1]: 4
Number of Hatched Eggs z-score [1]: [3.31]

Clc1ccc(-c2cn3c(n2)SCC3)cc1 [I-49]
Number of Hatched Eggs [1]: 2
Number of Hatched Eggs z-score [1]: [3.97]
Replicate 1 z-score ([2]; 45 μM, 4 days, replicate 1): [15.80]
Replicate 2 z-score ([2]; 45 μM, 4 days, replicate 2): [16.33]
pest or weed control at 45 µM [2, 4]: 100%
pest or weed control at 45 µM [2, 5]: 100%

Cc1csc2nc(-c3ccc(OC(F)F)cc3)cn12 [I-64]
Number of Hatched Eggs [1]: 4
Number of Hatched Eggs z-score [1]: [3.31]

Cc1cn2cc(-c3ccc(N)cc3)nc2s1 [I-132]
Number of Hatched Eggs [1]: 3
Number of Hatched Eggs z-score [1]: [3.64]

CCOc1ccc(-c2cn3ccsc3n2)cc1 [I-153]
Number of Hatched Eggs [1]: 2
Number of Hatched Eggs z-score [1]: [3.97]
